What was measured:
Assay in all cases: relative viability (nuclei count vs DMSO), 5 days (fraction); higher = more cells survive
[1] = compound: C[As](C)SC[C@H](NC(=O)CC[C@H](N)C(=O)O)C(=O)NCC(=O)O [Darinaparsin] + Cc1cc(Nc2cc(N3CCN(C)CC3)nc(Sc3ccc(NC(=O)C4CC4)cc3)n2)n[nH]1 [Tozasertib] (partner 0.1 µM)
Summary of the method: (§1)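 A single step with final 0.05% Triton X-100, 1% formaldehyde and 1 ug/ml Hoechst fixed the cells and stained nuclei 5 days after treatment. Lung cancer cell lines in 1536-well plates had been treated by pin tool the day after seeding with one drug alone or a fixed anchor-drug dose plus five library-drug doses (not always all listed) in √10 steps, and nuclei were counted on 4× images. Relative viability is the ratio of nuclei in treated wells to nuclei in vehicle wells, taken as the median of duplicate plates.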

Darinaparsin + Foretinib = compound: C[As](C)SC[C@H](NC(=O)CC[C@H](N)C(=O)O)C(=O)NCC(=O)O [Darinaparsin] + COc1cc2c(Oc3ccc(NC(=O)C4(C(=O)Nc5ccc(F)cc5)CC4)cc3F)ccnc2cc1OCCCN1CCOCC1 [Foretinib] (partner 0.25 µM)
Summary of the method: as §1

Darinaparsin + Alpelisib = compound: C[As](C)SC[C@H](NC(=O)CC[C@H](N)C(=O)O)C(=O)NCC(=O)O [Darinaparsin] + Cc1nc(NC(=O)N2CCC[C@H]2C(N)=O)sc1-c1ccnc(C(C)(C)C(F)(F)F)c1 [Alpelisib] (partner 2 µM)
Summary of the method: as §1

[2] = compound: C[As](C)SC[C@H](NC(=O)CC[C@H](N)C(=O)O)C(=O)NCC(=O)O [Darinaparsin] + C[C@@H](Oc1cc(-c2cnn(C3CCNCC3)c2)cnc1N)c1c(Cl)ccc(F)c1Cl [Crizotinib] (partner 1 µM)
Summary of the method: as §1

Darinaparsin + OSI-027 = compound: C[As](C)SC[C@H](NC(=O)CC[C@H](N)C(=O)O)C(=O)NCC(=O)O [Darinaparsin] + COc1cccc2cc(-c3nc([C@H]4CC[C@H](C(=O)O)CC4)n4ncnc(N)c34)[nH]c12 [OSI-027] (partner 0.5 µM)
Summary of the method: as §1

Row | Cell Line | relative viability ([1]; first compound 0.8 µM) | relative viability ([1]; first compound 2.53 µM) | relative viability ([1]; first compound 8 µM) | relative viability (Darinaparsin + Foretinib; first compound 0.8 µM) | relative viability (Darinaparsin + Foretinib; first compound 2.53 µM) | relative viability (Darinaparsin + Foretinib; first compound 8 µM) | relative viability (Darinaparsin + Alpelisib; first compound 0.08 µM) | relative viability (Darinaparsin + Alpelisib; first compound 0.8 µM) | relative viability (Darinaparsin + Alpelisib; first compound 2.53 µM) | relative viability (Darinaparsin + Alpelisib; first compound 8 µM) | relative viability ([2]; first compound 0.08 µM) | relative viability ([2]; first compound 0.8 µM) | relative viability ([2]; first compound 2.53 µM) | relative viability ([2]; first compound 8 µM) | relative viability (Darinaparsin + OSI-027; first compound 0.8 µM) | relative viability (Darinaparsin + OSI-027; first compound 2.53 µM) | relative viability (Darinaparsin + OSI-027; first compound 8 µM) | relative viability ([1]; first compound 0.08 µM) | relative viability (Darinaparsin + Foretinib; first compound 0.08 µM) | relative viability (Darinaparsin + OSI-027; first compound 0.08 µM)
1 | EPLC-272H | 0.308 | 0.229 | 0.277 | 0.658 | 0.619 | 0.814 | 1.03 | 0.931 | 0.851 | 1.15 | 1.02 | 0.529 | 0.649 | 0.89 | 0.285 | 0.243 | 0.321 |  |  | 
2 | SW 900 | 0.538 | 0.658 | 0.555 | 0.778 | 0.918 | 1.06 |  |  |  |  |  |  |  |  | 0.547 | 0.72 | 0.756 | 0.677 | 0.919 | 0.851
3 | EBC-1 |  |  |  | 0.0925 | 0.123 | 0.0888 | 0.802 | 0.773 | 0.728 | 0.958 | 0.196 | 0.19 | 0.181 | 0.166 |  |  |  |  | 0.103 | 
4 | HCC-44 | 0.927 | 0.769 | 0.87 |  |  |  | 0.833 | 0.92 | 0.576 | 0.979 | 0.875 | 0.872 | 0.618 | 0.929 | 0.514 | 0.454 | 0.378 | 1.21 |  | 0.511
5 | NCI-H441 | 0.673 | 0.72 | 0.539 | 1.25 | 1.07 | 0.902 | 0.774 | 0.635 | 0.809 | 0.893 | 0.956 | 0.729 | 0.676 | 0.701 | 0.719 | 0.555 | 0.613 | 0.839 | 1.2 | 0.79
6 | LU99A | 0.295 | 0.256 | 0.243 | 0.703 | 0.806 | 0.819 | 0.592 | 0.52 | 0.457 | 0.606 | 0.626 | 0.574 | 0.461 | 0.593 | 0.298 | 0.337 | 0.271 | 0.262 | 0.833 | 0.311
7 | NCI-H661 | 0.351 | 0.377 | 0.361 | 0.995 | 1.08 | 1.26 | 0.632 | 0.692 | 0.683 | 0.668 | 1.08 | 1.11 | 0.929 | 1.1 | 0.677 | 0.658 | 0.69 | 0.357 | 1.01 | 0.722
8 | PC-14 | 0.479 | 0.768 | 0.577 | 0.981 | 0.927 | 1.14 | 0.858 | 1.02 | 0.742 | 1.2 | 1.26 | 0.797 | 0.72 | 1.01 | 0.697 | 0.704 | 1.26 | 0.707 | 1.18 | 1.09
9 | NCI-H1299 |  |  |  | 1.06 | 1.09 | 1.11 | 1.09 | 1.18 | 0.904 | 1.18 | 1.09 | 0.981 | 0.871 | 1.1 |  |  |  |  | 1.14 | 

Reference: the supplement of paper PMC10307832
